What was measured:
[1] = tested on: B16/F10 melanoma cells; test: Nonspecific B16/F10 melanoma cell-uptake (free, membrane-bound, internalized fractions); format: cell-based, mouse; settings: for radioactivity in the free fraction outside the cells: n=3
Procedure: Rat pancreatic tumor cell line AR42J that expresses SSTR was obtained from American Type Culture Collection (Manassas, VA). C4-2 cells (ATCC® CRL-3314™) were cultured in DMEM medium (Gibco) supplemented with 18% F12 medium (Sigma), 10% FBS (Gibco) and 1% T-medium. Both cell lines were grown in at 37° C. in a humidified incubator containing 5% C02. Cells grown to 80%-90% confluence were used for either in vitro or in vivo experiments. Mouse skin melanoma B16/F10 cells were cultured in CO2 Independent Medium (Life Technologies Gibco, cat. #18045054) supplemented with GlutaMax (1× final concentration, 10% FBS and Pen-Strep at 37° C. in a humidified incubator. The B16/F10 cell viability was 97%. The C4-2 cells (ATCC® CRL-3314™) were cultured in DMEM medium (Gibco) supplemented with 18% F12 medium (Sigma), 10% FBS (Gibco) and 1% T-medium. Both cell lines were grown in at 37° C. in a humidified incubator containing 5% C02. Cells grown to 80%-90% confluence were used for either in vitro or in vivo experiments.
500 000 cells/well were seeded overnight on 6-well plates. The growth media was removed and the reaction media containing the radiotracer [^18F]4 was added. […] The membrane-bound fraction was collected by adding cold glycine buffer (1 mL) on the cells, incubating for 5 minutes on an ice bath, removing the supernatant, repeating the procedure, and washing the cells with cold 1×PBS, and collecting all the supernatants to the same microtube. For determining the internalized fraction, 1 M NaOH was added on the cells and left to incubate in ambient temperature for 10 minutes. The supernatant was removed and the cells were washed twice with cold 1×PBS, and the supernatants were collected into the same microtube. The supernatants collected separately in each phase, were measure with a gamma counter for determining the radioactivity-ratio (%) of each fraction. […] The radioactivity distribution between the aforementioned fractions is depicted in FIG. 9.

[2] = PET/CT, biodistribution and elimination in control SCID mice; format: in vivo, mouse; settings: intravenous
Procedure: [^18F]AmBF3-Tz ([^18F]4) was formulated in 10% ethanol in 0.01 M PBS and administered intravenously to SCID mice. The PET/CT image was acquired with Inveon PET/CT and Molecubes PET and CT.
[^18F]AmBF3-Tz ([^18F]4) was formulated in 10% ethanol in 0.01 M PBS and administered intravenously to SCID mice. The standardized uptake values (SUVs) presenting the elimination profile (FIGS. 13a and 13b) were determined from the PET image by drawing regions-of-interest (ROI) around selected organs (heart, liver, kidney, lung, muscle, urinary bladder) and by measuring the ratio of radioactivity per unit volume of that ROI and normalized to the injected dose.

radioactivity in the free fraction outside the cells ([1]; B16/F10 cells, 15 min): 99.3±0.09% | radioactivity in the free fraction outside the cells ([1]; B16/F10 cells, 240 min): 99.3±0.08% | % of total radioactivity in the free fraction ([1]; B16/F10 cells, at each time point (FIG. 9)): Over 99% | main elimination route [2]: through kidneys | in vivo stability (bone uptake) ([2]; PET/CT and biodistribution): excellent stability
Compound: C[N+](C)(CCNC(=O)Cc1ccc(-c2nncnn2)cc1)C[B-](F)(F)F [[^18F]4, {[(2-{2-[4-(1,2,4,5-tetrazin-3-yl)phenyl]acetamido}ethyl)dimethylammonio]methyl}trifluoroborate]
nonspecific uptake in B16/F10 cells ([1]; throughout the study): did not demonstrate nonspecific uptake
